PMC10135569, “Does Enhanced Structural Maturity of hiPSC-Cardiomyocytes Better for the Detection of Drug-Induced Cardiotoxicity?” (Biomolecules, 2023)
“Also recorded” adds a separate entry of the source. Read-outs that look alike come from different tables or passages of the source.

Experiments:
[1] = test system: hiPSC-CMs (iCell2 Cardiomyocytes) 2D monolayers; test: Membrane potential (action potential) recordings with FluoVolt voltage-sensitive dye on the CellOPTIQ platform; assay type: cell-based, human; conditions: for effect on APD90: positive control
Experimental: (§1) Cardiomyocytes (FUJIFILM Cellular Dynamics, Madison, WI, USA) were kept at −190 °C and prepared for culture as per the manufacturer’s instructions.
(§2) Standard fibronectin vs. Matrix Plus well coating: The cells were cultured using two different coatings in a humidified incubator at 37 °C with 5% CO2. First, 96-well glass-bottomed plates (MatTek, Ashland, MA) were coated with fibronectin ([…] in PBS supplemented with Ca^2+ and Mg^2+; Sigma, St. Louis, MO, USA) (defining FM). Second, CELLvo^TM Matrix Plus (StemBioSys, San Antonio, TX, USA), which were pre-coated on 96 well glass bottom plates and kept at 4 °C. On the day of plating, CELLvo^TM Matrix Plus plates were transferred to room temperature, rehydrated with phosphate buffer saline (PBS), incubated for 1 h at 37 °C, and washed 2× with PBS. Cells were introduced at a density of 50,000 cells/well to allow the formation of a confluent monolayer in each well (defined as MM). The maintenance protocols followed the manufacturer’s instructions and used the iCell^2 Cardiomyocytes Maintenance media for media changes every 2 days. Experiments were performed between days 5 and 6, as recommended by the manufacturers. Before beginning an experiment, cells were washed in serum-free media (SF media) (Fluorobrite DMEM, Gibco, Thermo Fisher Scientific, Horsham, UK).
(§3) The drug powders were dissolved in DMSO, and four stock concentrations at 1000× the final target concentration were prepared in DMSO. For the experiment, an intermediate concentration 2× the target solution was prepared in SF media. The addition of drugs to the cells was accomplished by replacing 50% of the well volume with the intermediate 2× solution. The same procedure was done for vehicle control using DMSO. The experimental number n = 8/concentration/testing compound in the FM or MM condition, and n = 36 for each positive or negative control in the FM or MM condition.
Cultures of hiPSC-CMs (5–6 days post-plating) were treated with FluoVolt dye (1:1000, Invitrogen, Cat# F10488) in SF media and incubated for 20 min at 37 °C with 5% CO2 and 80% humidity. Multi-well plates were placed in the environmentally controlled stage incubator (37 °C, 5% CO2, water-saturated air atmosphere) (Okolab Inc. Burlingame, CA) of the CellOPTIQ® platform (Clyde Biosciences Ltd., Glasgow, Scotland). The FluoVolt signal was recorded from a 0.2 mm × 0.2 mm area using a 40× (numerical aperture: NA 0.6) Excitation wavelength was 470 ± 10 nm using a light-emitting diode (LED), and emitted light was collected by two photomultipliers (PMTs) at 510–560 nm (channel 1) and 590–650 nm (channel 2), respectively. LED, PMT, and associated power supplies and amplifiers were supplied by Cairn Research Ltd. (Kent, UK) and digitized at 10 kHz and stored on a computer hard drive. In the case of FluoVolt-based action potential recordings, the short wavelength (channel 1, […]) was analyzed for action potential features.
(§4) The dye FluoVolt is loaded into the surface membrane (outer leaflet), and the dye remains within the membrane for many dots, allowing intermittent voltage measurements over the experimental period. In this study, measurements were restricted to within 30 mins of application of the drug. The measurements were made on the same area before/after drug/DMSO addition. […] Baseline spontaneous electrical activity and the associated contractility signal were recorded by capturing 10 s segments of fluorescent signal and video for 2D plates and 15 s for organoids from each well prior to compound addition. Drugs were tested at four concentrations in n = 8 independent replicates (i.e., 8 wells from a single plating) at each concentration. A vehicle control was included for each drug. A 10 s or 15 s recording was then taken 30 min after exposure to the drug or vehicle with only one concentration applied/well.

[2] = test system: hiPSC-CMs (iCell2 Cardiomyocytes) 2D monolayers; test: Contractility measurements using video imaging (ContractilityTool / MUSCLEMOTION); assay type: cell-based, human
Experimental: as §1, §2, §3
as §4, with “applied/well. Offline analysis was performed using proprietary software (CellOPTIQ®).” for “applied/well.”
Short periods (10 s or 15 s) of video were analyzed using the ContractilityTool application (developed by F.L. Burton), which is an implementation of the MUSCLEMOTION algorithm.

[3] = listed in Supplementary Table S1; no reference given; cited from earlier work
[4] = range of concentrations, negative control, FM and MM
[5] = FM monolayer, 0.01 µM, 30 min, delta over DMSO 0.1%
[6] = FM monolayer, 0.1 µM, 30 min, delta over DMSO 0.1%
[7] = FM monolayer, 0.3 µM, 30 min, delta over DMSO 0.1%
[8] = FM monolayer, 1 µM, 30 min, delta over DMSO 0.1%
[9] = MM monolayer, 0.01 µM, 30 min, delta over DMSO 0.1%
[10] = MM monolayer, 0.1 µM, 30 min, delta over DMSO 0.1%
[11] = MM monolayer, 0.3 µM, 30 min, delta over DMSO 0.1%
[12] = MM monolayer, 1 µM, 30 min, delta over DMSO 0.1%

In the case of `O=C(O)COCCN1CCN(C(c2ccccc2)c2ccc(Cl)cc2)CC1` (centres unmarked) [Cetirizine], the activity at 0.1 µM ([1]; Homo sapiens, Cardiomyocyte, 0.5 h, FM monolayer, 0.1 µM, 30 min, delta over DMSO 0.1%, read-out: Trise (%DD)) is reported as 154 ± 32.6%, the activity at 0.3 µM ([1]; Homo sapiens, Cardiomyocyte, 0.5 h, FM monolayer, 0.3 µM, 30 min, delta over DMSO 0.1%, read-out: Trise (%DD)) is reported as 127 ± 16.8% and the activity at 3 µM ([1]; Homo sapiens, Cardiomyocyte, 0.5 h, FM monolayer, 3 µM, 30 min, delta over DMSO 0.1%, read-out: Trise (%DD)) is reported as 122 ± 8.8%. For the same compound, the activity at 0.1 µM ([1]; Homo sapiens, Cardiomyocyte, 0.5 h, MM monolayer, 0.1 µM, 30 min, delta over DMSO 0.1%, read-out: Trise (%DD)) was 146 ± 16.9%, the “change in the voltage parameters” value [1, 4] was “No change” and the activity at 0.1 µM ([2]; Homo sapiens, Cardiomyocyte, 0.5 h, FM monolayer, 0.1 µM, 30 min, delta over DMSO 0.1%, read-out: CtAmp (%DD)) was 72 ± 13.3%. It also gave an activity at 0.3 µM ([2]; Homo sapiens, Cardiomyocyte, 0.5 h, FM monolayer, 0.3 µM, 30 min, delta over DMSO 0.1%, read-out: CtAmp (%DD)) of 87 ± 14.6%, an activity at 1 µM ([2]; Homo sapiens, Cardiomyocyte, 0.5 h, FM monolayer, 1 µM, 30 min, delta over DMSO 0.1%, read-out: CtAmp (%DD)) of 129 ± 32.9% and an activity at 1 µM ([2]; Homo sapiens, Cardiomyocyte, 0.5 h, MM monolayer, 1 µM, 30 min, delta over DMSO 0.1%, read-out: CtAmp (%DD)) of 118 ± 14.2%. For the same compound, the activity at 3 µM ([2]; Homo sapiens, Cardiomyocyte, 0.5 h, MM monolayer, 3 µM, 30 min, delta over DMSO 0.1%, read-out: CtAmp (%DD)) was 87 ± 5.3% and the “change in the contractility parameters” value [2, 4] was “No change”.
For `CN(CCOc1ccc(NS(C)(=O)=O)cc1)CCc1ccc(NS(C)(=O)=O)cc1` [Dofetilide], the “effect on APD90” value ([1]; 10 nM, both 2D models) is given as “significantly prolonged” and the “Free Cmax” value [3] is given as 2.7 nM.
With `COC(=O)C1=C(C)NC(C)=C(C(=O)OC)C1c1ccccc1[N+](=O)[O-]` [Nifedipine] the “effect on APD90” value ([1]; 100 nM, 2D monolayers on fibronectin and Matrix Plus) was “shortened; also recorded: reduced” and the “effect on duration of contraction” value ([2]; 100 nM, 2D monolayers on fibronectin and Matrix Plus, positive control) was “shortened; also recorded: reduced”.
For `COCCOC(=O)C1=C(C)NC(C)=C(C(=O)OC(C)C)C1c1cccc([N+](=O)[O-])c1` (centres unmarked) [Nimodipine], the “Free Cmax” value [3] is given as 69 nM.
For `NC(=Nc1ccc(OCCCCCOc2ccc(N=C(N)c3ccccc3)cc2)cc1)c1ccccc1` [PA-6], the “APD30 (%DD)” value [1, 5] was 108±3.6 %DD, the “APD90 (%DD)” value [1, 5] was 104±1.1 %DD and the “CL (%DD)” value [1, 5] was 101±0.8 %DD. The “Trise (%DD)” value [1, 5] was 101±17.4 %DD, the “APD30 (%DD)” value [1, 6] was 99±3 %DD and the “APD90 (%DD)” value [1, 6] was 107±1.4 %DD. The “CL (%DD)” value [1, 6] was 98±2.3 %DD, the “Trise (%DD)” value [1, 6] was 70±6.1 %DD and the “APD30 (%DD)” value [1, 7] was 105±2.4 %DD. For the same compound, the “APD90 (%DD)” value [1, 7] was 111±0.8 %DD, the “CL (%DD)” value [1, 7] was 101±2.5 %DD and the “Trise (%DD)” value [1, 7] was 89±10.8 %DD. For the same compound, the “APD30 (%DD)” value [1, 8] was 110±1.3 %DD, the “APD90 (%DD)” value [1, 8] was 116±1.3 %DD and the “CL (%DD)” value [1, 8] was 108±1.4 %DD. The “Trise (%DD)” value [1, 8] was 128 ± 15.8 %DD, the “APD30 (%DD)” value [1, 9] was 107±1.9 %DD and the “APD90 (%DD)” value [1, 9] was 103±1.5 %DD. For the same compound, the “CL (%DD)” value [1, 9] was 97±0.7 %DD, the “Trise (%DD)” value [1, 9] was 119±25.1 %DD and the “APD30 (%DD)” value [1, 10] was 105±1 %DD. The “APD90 (%DD)” value [1, 10] was 111±2.2 %DD, the “CL (%DD)” value [1, 10] was 100±0.5 %DD and the “Trise (%DD)” value [1, 10] was 74±17.9 %DD. The “APD30 (%DD)” value [1, 11] was 107±1.9 %DD, the “APD90 (%DD)” value [1, 11] was 111±1 %DD and the “CL (%DD)” value [1, 11] was 102±0.8 %DD. For the same compound, the “Trise (%DD)” value [1, 11] was 96±12.7 %DD, the “APD30 (%DD)” value [1, 12] was 107±1.5 %DD and the “APD90 (%DD)” value [1, 12] was 111±1.7 %DD. For the same compound, the “CL (%DD)” value [1, 12] was 108±2.4 %DD, the “Trise (%DD)” value [1, 12] was 138±14.2 %DD and the “effect on APD90 (in words)” value ([1]; both FM and MM monolayers, concentration not given) was “mild APD90 prolongation”. The “effect of selective Kir2.1 channel block” value ([1]; both experimental groups) was “lack of effect”, the “CtAmp (%DD)” value [2, 5] was 103±8.8 %DD and the “CtD50 (%DD)” value [2, 5] was 104±1.7 %DD. The “CtAmp (%DD)” value [2, 6] was 111±14.2 %DD, the “CtD50 (%DD)” value [2, 6] was 105±1.8 %DD and the “CtAmp (%DD)” value [2, 7] was 105±10.2 %DD. For the same compound, the “CtD50 (%DD)” value [2, 7] was 106±2.1 %DD, the “CtAmp (%DD)” value [2, 8] was 111 ± 8.1 %DD and the “CtD50 (%DD)” value [2, 8] was 112±2.5 %DD. The “CtAmp (%DD)” value [2, 9] was 127±13 %DD, the “CtD50 (%DD)” value [2, 9] was 101±1.3 %DD and the “CtAmp (%DD)” value [2, 10] was 99±11.2 %DD. The “CtD50 (%DD)” value [2, 10] was 103±1.1 %DD, the “CtAmp (%DD)” value [2, 11] was 135±22.2 %DD and the “CtD50 (%DD)” value [2, 11] was 105±1.9 %DD. The “CtAmp (%DD)” value [2, 12] was 114±9.8 %DD and the “CtD50 (%DD)” value [2, 12] was 107±1.2 %DD.
With `CC(=O)OCC[N+](C)(C)C` [acetylcholine] the “effect on beating rate / spontaneous rate (in words)” value ([1]; both FM and MM, concentration not given) was “decrease” and the “changes in the APD” value ([1]; both groups (FM and MM)) was under 10%.
